Results from ChEMBL document CHEMBL4346712, “Research progress in the biological activities of 3,4,5-trimethoxycinnamic acid (TMCA) derivatives” (Eur J Med Chem, 2019).
Blank lines part the entries; values can stand above or below the molecule they belong to.

Experiments:
[1] = biological target: Sodium-dependent serotonin transporter (Homo sapiens, UniProt P31645); assay: Displacement of [3H]Imipramine from human 5-HT transporter expressed in HEK-293 cell membranes after 30 mins
Mus musculus = assay: Antinarcotic activity in morphine-dependent C57BL/6 mouse assessed as inhibition of naloxone-induced jumping behavior in mouse at 5 mg/kg , ip after 30 mins relative to control; format: functional; conditions: C57BL/6, ip, 0.5 h
[2] = Growth inhibition of HUVEC; format: cell-based; conditions: human, HUVEC cells
[3] = Growth inhibition of HUVEC at 5 uM relative to control; format: cell-based; conditions: human, HUVEC cells; read-out: GI
[4] = biological target: T1, Bifunctional epoxide hydrolase 2 (Homo sapiens, UniProt P34913); assay: Competitive inhibition of soluble epoxide hydrolase (unknown origin)
T1 sequence (P34913 whole entry): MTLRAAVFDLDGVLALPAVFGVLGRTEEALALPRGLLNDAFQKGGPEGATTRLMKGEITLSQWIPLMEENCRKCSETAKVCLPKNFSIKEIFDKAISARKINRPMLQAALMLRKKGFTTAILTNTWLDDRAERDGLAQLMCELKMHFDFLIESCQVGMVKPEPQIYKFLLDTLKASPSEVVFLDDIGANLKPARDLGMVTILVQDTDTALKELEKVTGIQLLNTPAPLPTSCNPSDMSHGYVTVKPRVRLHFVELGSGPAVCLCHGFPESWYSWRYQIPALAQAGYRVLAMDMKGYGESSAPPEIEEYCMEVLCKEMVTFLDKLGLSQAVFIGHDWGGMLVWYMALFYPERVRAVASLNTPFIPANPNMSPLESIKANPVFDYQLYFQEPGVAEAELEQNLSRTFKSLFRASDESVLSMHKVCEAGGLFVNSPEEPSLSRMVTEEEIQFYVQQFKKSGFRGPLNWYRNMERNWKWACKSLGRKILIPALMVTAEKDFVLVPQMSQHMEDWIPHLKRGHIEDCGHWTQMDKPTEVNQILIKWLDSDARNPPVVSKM

[5] = biological target: T2, Bifunctional epoxide hydrolase 2 (Homo sapiens) (UniProt P34913); assay: Competitive inhibition of soluble epoxide hydrolase (unknown origin) at 100 uM relative to control
T2 sequence (whole entry): T1 sequence (P34913 whole entry)

Platelet [6] = assay: Antiplatelet activity in rabbit platelet rich plasma assessed as inhibition of ADP-induced platelet aggregation at 30 ug/ml relative to control; format: functional; conditions: Oryctolagus cuniculus
Platelet [7] = assay: Antiplatelet activity in rabbit platelet rich plasma assessed as inhibition of PAF-induced platelet aggregation at 50 ug/ml relative to control; format: functional; conditions: Oryctolagus cuniculus
[8] = biological target: Platelet-activating factor receptor (Homo sapiens) (UniProt P25105); assay: Inhibition of PAF receptor (unknown origin) assessed as reduction in receptor to rabbit platelet binding at 20 ug/ml relative to control
Platelet-activating factor receptor (Homo sapiens), sequence (P25105 whole entry): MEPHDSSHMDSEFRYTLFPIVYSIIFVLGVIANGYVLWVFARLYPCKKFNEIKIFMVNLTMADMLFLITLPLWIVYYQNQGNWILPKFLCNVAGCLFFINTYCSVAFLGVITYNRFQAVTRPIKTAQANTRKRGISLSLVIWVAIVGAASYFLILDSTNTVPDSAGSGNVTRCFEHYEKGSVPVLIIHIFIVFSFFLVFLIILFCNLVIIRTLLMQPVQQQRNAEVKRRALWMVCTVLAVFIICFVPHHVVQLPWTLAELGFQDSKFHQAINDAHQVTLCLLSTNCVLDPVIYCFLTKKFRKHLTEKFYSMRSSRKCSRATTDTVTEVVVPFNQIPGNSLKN

[9] = biological target: 5-hydroxytryptamine receptor 1A (Homo sapiens, UniProt P08908); assay: Displacement of [3H]8-OH-DPAT from 5-HT1A receptor (unknown origin) expressed in CHO-K1 cell membranes after 60 mins by microbeta counting method
5-hydroxytryptamine receptor 1A, sequence (P08908 whole entry): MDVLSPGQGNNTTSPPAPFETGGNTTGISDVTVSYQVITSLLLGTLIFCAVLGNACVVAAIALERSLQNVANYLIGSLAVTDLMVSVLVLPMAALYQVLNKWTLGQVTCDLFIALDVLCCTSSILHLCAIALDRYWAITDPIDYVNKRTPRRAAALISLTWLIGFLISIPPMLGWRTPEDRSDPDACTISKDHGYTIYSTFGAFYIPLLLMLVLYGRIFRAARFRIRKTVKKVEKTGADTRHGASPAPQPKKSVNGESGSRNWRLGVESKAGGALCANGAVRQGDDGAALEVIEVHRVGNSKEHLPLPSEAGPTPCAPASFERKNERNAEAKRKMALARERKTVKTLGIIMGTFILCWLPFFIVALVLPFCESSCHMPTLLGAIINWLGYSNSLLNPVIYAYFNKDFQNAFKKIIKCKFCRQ

Plasmodium falciparum [10] = assay: Antiplasmodial activity against blood form of chloroquine-resistant/mefloquine-sensitive Plasmodium falciparum W2 by [3H]-hypoxanthine incorporation method; format: functional, organism-based
Plasmodium falciparum [11] = assay: Antiplasmodial activity against blood form of chloroquine-resistant/mefloquine-sensitive Plasmodium falciparum W2 by histidine rich protein assay; format: functional, organism-based
[12] = Antioxidant activity assessed as DPPH radical scavenging activity at 50 ug/ml relative to control; format: functional
HepG2 2.2.15 = assay: Cytotoxicity against human HepG2(2.2.15) cells after 24 hrs by MTT assay; format: functional; conditions: HepG2 2.2.15, 24 h
Hepatitis B virus [13] = assay: Antiviral activity against Hepatitis B virus infected in human HepG2.2.15 cells assessed as reduction in HBsAg secretion by ELISA; format: functional, organism-based
Hepatitis B virus [14] = assay: Antiviral activity against Hepatitis B virus infected in human HepG2.2.15 cells assessed as reduction in HBeAg secretion by ELISA; format: functional, organism-based
Platelet [15] = assay: Antiplatelet activity in rabbit platelet rich plasma assessed as inhibition of collagen-induced platelet aggregation at 300 uM preincubated for 3 mins followed by collagen addition measured after 10 mins relative to control; format: functional; conditions: Oryctolagus cuniculus
Platelet [16] = assay: Antiplatelet activity in rabbit platelet rich plasma assessed as inhibition of arachidonic acid-induced platelet aggregation at 300 uM preincubated for 3 mins followed by arachidonic acid addition measured after 10 mins relative to control; format: functional; conditions: Oryctolagus cuniculus
Platelet [17] = assay: Antiplatelet activity in rabbit platelet rich plasma assessed as inhibition of PAF-induced platelet aggregation at 300 uM preincubated for 3 mins followed by PAF addition measured after 10 mins relative to control; format: functional; conditions: Oryctolagus cuniculus
Platelet [18] = assay: Antiplatelet activity in rabbit platelet rich plasma assessed as inhibition of arachidonic acid-induced platelet aggregation at 150 uM preincubated for 3 mins followed by arachidonic acid addition measured after 10 mins relative to control; format: functional; conditions: Oryctolagus cuniculus
Platelet [19] = assay: Antiplatelet activity in rabbit platelet rich plasma assessed as inhibition of PAF-induced platelet aggregation at 150 uM preincubated for 3 mins followed by PAF addition measured after 10 mins relative to control; format: functional; conditions: Oryctolagus cuniculus

Sodium-dependent serotonin transporter, sequence (P31645 whole entry): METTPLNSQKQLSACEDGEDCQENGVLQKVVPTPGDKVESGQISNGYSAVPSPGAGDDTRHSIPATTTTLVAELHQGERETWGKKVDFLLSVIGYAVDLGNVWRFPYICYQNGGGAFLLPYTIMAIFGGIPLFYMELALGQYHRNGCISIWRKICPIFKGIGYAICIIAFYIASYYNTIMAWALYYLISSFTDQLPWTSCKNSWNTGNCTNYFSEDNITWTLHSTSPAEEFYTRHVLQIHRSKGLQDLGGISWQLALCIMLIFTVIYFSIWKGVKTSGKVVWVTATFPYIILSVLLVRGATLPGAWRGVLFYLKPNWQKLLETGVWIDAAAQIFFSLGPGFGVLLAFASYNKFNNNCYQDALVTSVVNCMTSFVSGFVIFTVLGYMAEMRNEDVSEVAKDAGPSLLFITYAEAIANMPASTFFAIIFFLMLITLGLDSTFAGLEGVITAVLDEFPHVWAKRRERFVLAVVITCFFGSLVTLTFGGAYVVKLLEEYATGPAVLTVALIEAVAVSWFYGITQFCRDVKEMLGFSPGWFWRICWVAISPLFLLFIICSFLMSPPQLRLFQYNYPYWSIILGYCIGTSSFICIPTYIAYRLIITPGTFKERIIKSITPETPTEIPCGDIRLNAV

SMILES: CCCCCCCCNC(=O)/C=C/c1cc(OC)c(OC)c(OC)c1
IC50 [1]: > 10 µM
inhibition in vivo at 5 mg/kg (Mus musculus): 88%

SMILES: COc1cc(/C=C/C(=O)Nc2ccc(NC(=O)[C@@H](O)[C@H](N)CC3CCCCC3)cc2)cc(OC)c1OC
GI50 [2]: 670 nM
inhibition at 5 µM [3]: > 98%

IC50 [4]: 9.1 µM
inhibition [5]: > 100%
SMILES: COc1cc(/C=C/C(=O)O[C@H]2[C@H](O)[C@@H](CO)O[C@@]2(CO)O[C@H]2O[C@H](COC(=O)c3ccc(O)cc3)[C@@H](O)[C@H](O)[C@H]2O)cc(OC)c1OC

IC50 [4]: 27.2 µM
inhibition [5]: 97.4%
SMILES: COc1cc(/C=C/C(=O)OC[C@H]2O[C@H](O[C@@]3(CO)O[C@H](CO)[C@@H](O)[C@@H]3OC(=O)/C=C/c3cc(OC)c(OC)c(OC)c3)[C@H](O)[C@@H](O)[C@@H]2O)cc(OC)c1O

SMILES: COc1cc(/C=C/C(=O)NCCc2ccc(O)cc2)cc(OC)c1OC
inhibition at 30 µg/mL (Platelet [6]): 24.4%
inhibition at 50 µg/mL (Platelet [7]): 28.8%
inhibition [8]: 12%

IC50 [9]: 9.4 µM
SMILES: COc1cc(/C=C/C(=O)Oc2ccccc2)cc(OC)c1OC

SMILES: COc1cc(/C=C/C(=O)OCC(=O)c2ccc(Cl)cc2)cc(OC)c1OC
IC50 (Plasmodium falciparum [10]): 128 µM
IC50 (Plasmodium falciparum [11]): 128 µM

IC50 [4]: 18 µM
inhibition [5]: > 100%
SMILES: COc1cc(/C=C/C(=O)O[C@H]2[C@H](O)[C@@H](CO)O[C@]2(CO)O[C@H]2O[C@H](CO)[C@@H](OC(=O)c3ccccc3)[C@H](O)[C@H]2O)cc(OC)c1OC

IC50 [1]: > 10 µM
SMILES: COc1cc(/C=C/C(=O)O)cc(OC)c1OC [SINAPIC ACID METHYL ETHER]

SMILES: COc1ccc(/C=C/COC(=O)/C=C/c2cc(OC)c(OC)c(OC)c2)cc1
inhibition [12]: 18.6%

SMILES: COc1cc(/C=C/C(=O)ON=C2C3CC4CC(C3)CC2C4)cc(OC)c1OC
CC50 (HepG2 2.2.15): 507 µM
IC50 (Hepatitis B virus [13]): 107 µM
IC50 (Hepatitis B virus [14]): 74.8 µM

SMILES: CC(=O)Oc1ccccc1C(=O)O [ASPIRIN]
inhibition at 300 µM (Platelet [15]): 5.8%
inhibition at 300 µM (Platelet [16]): 100%
inhibition at 300 µM (Platelet [17]): 0.3%
inhibition at 150 µM (Platelet [18]): 75%
inhibition at 150 µM (Platelet [19]): 0.3%
